In ChEMBL document CHEMBL4834421, “Deconstructing Noncovalent Kelch-like ECH-Associated Protein 1 (Keap1) Inhibitors into Fragments to Reconstruct New Potent Compounds” (J Med Chem, 2021):

Tests used:
[1] = pampa, 5 h
in vitro = settings: CD1, mouse
[2] = human, plasma, 3 h, 20 µM
[3] = Stability of compound in human plasma assessed as half life at 20 uM incubated for 3 hrs by LC-MS (SIM) assay; assay type: ADME, cell-free

Structure (SMILES) | permeability [1] [%] | half-life at 4 h, 10 µM (in vitro; liver microsomes) [h] | Stabilty [2] | also measured
O=C(O)CN(c1cccc(-n2ncc(C(=O)O)c2C2CC2)c1)S(=O)(=O)c1ccccc1 | < 2 | 4 | – | –
CC(C)NCC(O)COc1cccc2ccccc12 (configuration not stated) [PROPRANOLOL] | – | – | – | half-life at 4 h, 10 µM (in vitro; microsomes): 0.617 h
O=C(O)c1cnn(-c2cccc(NS(=O)(=O)c3ccccc3)c2)c1C1CC1 | < 2 | 4 | Stable | –
COc1cccc(S(=O)(=O)N(CC(=O)O)c2cccc(-n3ncc(C(=O)O)c3[C@H]3C[C@@H]3c3ccccc3)c2)c1 (relative stereo) | < 2 | 4 | Stable | –
CCN(CC)CCOC(=O)c1ccc(N)cc1 [PROCAINE] | – | – | – | half-life at 20 µM [3]: 2 min
CNC(=O)c1cnn(-c2cccc(NS(=O)(=O)c3ccccc3)c2)c1C1CC1 | < 2 | – | – | –
CCCCC1CCCN1C(=O)[C@@H]1CCC[C@H](c2cccc(-n3ncc(C(=O)O)c3C3CC3)c2)C1 (some centres not stated) | – | – | Stable | –
